In experiment [1] the target is T1, IRAK4 (Homo sapiens, UniProt Q9NWZ3).
T1 sequence (Q9NWZ3 1-460): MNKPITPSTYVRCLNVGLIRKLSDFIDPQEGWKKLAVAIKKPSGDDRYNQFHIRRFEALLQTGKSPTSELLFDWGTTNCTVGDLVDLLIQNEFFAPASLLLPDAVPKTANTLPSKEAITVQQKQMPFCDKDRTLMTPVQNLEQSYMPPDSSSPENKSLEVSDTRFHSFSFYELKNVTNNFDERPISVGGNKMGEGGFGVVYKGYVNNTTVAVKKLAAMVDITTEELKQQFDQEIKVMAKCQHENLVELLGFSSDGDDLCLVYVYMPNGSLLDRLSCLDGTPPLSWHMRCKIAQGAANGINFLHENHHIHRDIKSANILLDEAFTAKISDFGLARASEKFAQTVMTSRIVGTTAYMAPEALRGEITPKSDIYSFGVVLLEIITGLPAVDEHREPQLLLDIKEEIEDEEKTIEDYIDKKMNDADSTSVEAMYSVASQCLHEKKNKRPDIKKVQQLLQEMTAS
Kind of experiment: 2-hour 1 mM ATP IRAK4 Biochemical assay (as above, but with 100 pM IRAK4 and 1 mM ATP). The note with it: IRAK4 MSD BIOCHEMICAL (1 mM ATP) IC50 (μM), 100 pM IRAK4, 2 hours. In a few lines: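 Run with 100 pM IRAK4 and 1 mM ATP for 2 hours, quenched with EDTA pH 8. Phosphorylated biotinylated peptide captured on streptavidin MSD plates and detected with anti-phosphothreonine antibody plus Sulfo-Tag secondary by electrochemiluminescence.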

Experiment [2] deals with T1, IRAK4. Kind of experiment: 2-hour 10 μM ATP Biochemical Assay (MesoScale Detection format; IRAK4 phosphorylation of biotin labeled IRAK1 activation loop peptide). The note with it: IRAK4 MSD BIOCHEMICAL (10 μM ATP) IC50 (μM), 1 nM IRAK4, 2 hours. In short, it runs like this:
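Kinase reaction run 2 h at 10 μM ATP with biotinylated IRAK1 activation-loop peptide, quenched with EDTA. Phospho-peptide captured on streptavidin MSD plates and detected with anti-phosphothreonine rabbit antibody plus Sulfo-Tag anti-rabbit electrochemiluminescence.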

Consider `CC1(COc2cc3nc(CC4CCOC4)cn3cc2NC(=O)c2cccc(C(F)(F)F)n2)COC1` (stereo not shown) [Example 163, N-(7-((3-methyloxetan-3-yl)methoxy)-2-((tetrahydrofuran-3-yl)methyl)imidazo[1,2-a]pyridin-6-yl)-6-(trifluoromethyl)picolinamide], for which the figures for the IC50 in experiment [1] and in experiment [2] were 0.007 µM and 0.002 µM, respectively.
Take `CC1(COc2cc3nc(C4CCOCC4)cn3cc2NC(=O)c2cccc(C(F)(F)F)n2)COC1` [Example 166, N-(7-((3-methyloxetan-3-yl)methoxy)-2-(tetrahydro-2H-pyran-4-yl)imidazo[1,2-a]pyridin-6-yl)-6-(trifluoromethyl)picolinamide]: the figures for the 50% inhibitory concentration (IC50) in experiment [1] and in experiment [2] were 0.009 µM and 0.002 µM, respectively.
For the compound `CCOc1cc2nc(C(O)C3CC3)cn2cc1NC(=O)c1cccc(C(F)(F)F)n1` (stereo not shown) [Example 168, N-(2-(cyclopropyl(hydroxy)methyl)-7-ethoxyimidazo[1,2-a]pyridin-6-yl)-6-(trifluoromethyl)picolinamide], the figures for the IC50 in experiment [1] and in experiment [2] were 0.015 µM and 0.007 µM, respectively.
`N#CCOc1cc2nc(C3CCOCC3)cn2cc1NC(=O)c1cccc(C(F)F)n1` [Example 172, N-(7-(cyanomethoxy)-2-(tetrahydro-2H-pyran-4-yl)imidazo[1,2-a]pyridin-6-yl)-6-(difluoromethyl)picolinamide]: the values for the half-maximal inhibitory concentration (IC50) in experiment [1] and in experiment [2] were 0.004 µM and 0.002 µM, respectively.
On to `CC(C#N)Oc1cc2nc(C3CCOCC3)cn2cc1NC(=O)c1cccc(C(F)F)n1` (stereo not shown) [Example 173, N-(7-(1-cyanoethoxy)-2-(tetrahydro-2H-pyran-4-yl)imidazo[1,2-a]pyridin-6-yl)-6-(difluoromethyl)picolinamide], for which the IC50 in experiment [1] and in experiment [2] was 0.001 µM throughout.
`CC1CCC(Oc2cc3nc(C4CCOCC4)cn3cc2NC(=O)c2cccc(C(F)F)n2)C1` (stereo not shown) [Example 178, 6-(difluoromethyl)-N-(7-((3-methylcyclopentyl)oxy)-2-(tetrahydro-2H-pyran-4-yl)imidazo[1,2-a]pyridin-6-yl)picolinamide]: the half-maximal inhibitory concentration (IC50) in experiment [1] and in experiment [2] was 0.001 µM throughout.
Consider `N#CC1CCC(Oc2cc3nc(C4CCOCC4)cn3cc2NC(=O)c2cccc(C(F)F)n2)C1` (stereo not shown) [Example 179, N-(7-((3-cyanocyclopentyl)oxy)-2-(tetrahydro-2H-pyran-4-yl)imidazo[1,2-a]pyridin-6-yl)-6-(difluoromethyl)picolinamide], for which the IC50 in experiment [1] and in experiment [2] was 0.001 µM in each case.
Take `CC1(C)CCC(Oc2cc3nc(C4CCOCC4)cn3cc2NC(=O)c2cccc(C(F)F)n2)C1` (stereo not shown) [Example 180, 6-(difluoromethyl)-N-(7-((3,3-dimethylcyclopentyl)oxy)-2-(tetrahydro-2H-pyran-4-yl)imidazo[1,2-a]pyridin-6-yl)picolinamide]: the IC50 in experiment [1] and in experiment [2] was 0.001 µM in each case.
As for `CN1CCC(Oc2cc3nc(C4CCOCC4)cn3cc2NC(=O)c2cccc(C(F)F)n2)C1=O` (stereo not shown) [Example 181, 6-(difluoromethyl)-N-(7-((1-methyl-2-oxopyrrolidin-3-yl)oxy)-2-(tetrahydro-2H-pyran-4-yl)imidazo[1,2-a]pyridin-6-yl)picolinamide], the half-maximal inhibitory concentration (IC50) (commonly the concentration that inhibits the measured activity by half) in experiment [1] was 0.002 µM; in experiment [2], 0.001 µM.
In the case of `O=C(Nc1cn2cc(C3CCOCC3)nc2cc1OC1COC1)c1cccc(C(F)F)n1` [Example 182, 6-(difluoromethyl)-N-(7-(oxetan-3-yloxy)-2-(tetrahydro-2H-pyran-4-yl)imidazo[1,2-a]pyridin-6-yl)picolinamide], the half-maximal inhibitory concentration (IC50) came to 0.004 µM in experiment [1] and 0.001 µM in experiment [2].
Taken in the same sequence, the figures for `CC1(C)CC(Oc2cc3nc(C4CCOCC4)cn3cc2NC(=O)c2cccc(C(F)F)n2)CO1` (stereo not shown) [Example 184, 6-(difluoromethyl)-N-(7-((5,5-dimethyltetrahydrofuran-3-yl)oxy)-2-(tetrahydro-2H-pyran-4-yl)imidazo[1,2-a]pyridin-6-yl)picolinamide] were 0.002 µM and 0.001 µM.

The record behind these values is US20220089592A1, “IMIDAZO[1,2-A]PYRIDINYL DERIVATIVES AS IRAK4 INHIBITORS” (priority 2019, published 2022).
